Biological target: IDO1 (Homo sapiens, UniProt P14902)
Test: IDO1 Cellular Assay in HeLa Cells Stimulated with IFNγ
Assay type: cell-based
Conditions: read-out: HeLa Cell Potency, IC50

Sequence of IDO1 (P14902 whole entry): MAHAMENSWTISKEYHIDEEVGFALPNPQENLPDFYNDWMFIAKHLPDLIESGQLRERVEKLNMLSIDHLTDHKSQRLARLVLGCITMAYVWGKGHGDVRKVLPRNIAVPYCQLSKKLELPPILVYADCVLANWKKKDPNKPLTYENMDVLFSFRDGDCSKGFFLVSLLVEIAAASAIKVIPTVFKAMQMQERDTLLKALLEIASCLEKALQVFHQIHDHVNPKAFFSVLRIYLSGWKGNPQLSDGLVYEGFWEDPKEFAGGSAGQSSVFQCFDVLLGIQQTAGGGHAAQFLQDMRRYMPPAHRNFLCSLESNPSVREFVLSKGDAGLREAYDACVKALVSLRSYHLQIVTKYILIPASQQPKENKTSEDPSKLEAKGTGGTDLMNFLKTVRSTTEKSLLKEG

First: Cc1cccc(N2CCN(C(=O)Cn3nc(C(=O)N4CCC(CN)CC4)c4c3CCC4)CC2)c1C [Example 180, 2-{3-[4-(aminomethyl)piperidine-1-carbonyl]-5,6-dihydrocyclopenta[c]pyrazol-1(4H)-yl}-1-[4-(2,3-dimethylphenyl)piperazin-1-yl]ethan-1-one]
Second: Cc1cccc(N2CCN(C(=O)Cn3nc(C(=O)N4CCC(N)CC4)c4c3CCC4)CC2)c1C [Example 200, 2-[3-(4-aminopiperidine-1-carbonyl)-5,6-dihydrocyclopenta[c]pyrazol-1(4H)-yl]-1-[4-(2,3-dimethylphenyl)piperazin-1-yl]ethan-1-one]
The IC50 of the first is 2.3-fold lower: 11.6 nM for the first, 26.6 nM for the second. The first is the more potent here.

`Cc1cccc(N2CCN(C(=O)Cn3nc(C(=O)N4CCC5(CC4)COCC5O)c4c3CCC4)CC2)c1C` (centres unmarked) [Example 182, 1-[4-(2,3-dimethylphenyl)piperazin-1-yl]-2-[3-(4-hydroxy-2-oxa-8-azaspiro[4.5]decane-8-carbonyl)-5,6-dihydrocyclopenta[c]pyrazol-1(4H)-yl]ethan-1-one] and `Cc1cccc(N2CCN(C(=O)Cn3nc(C(=O)N4CCC(O)(C(F)(F)F)CC4)c4c3CCC4)CC2)c1C` [Example 189, 1-[4-(2,3-dimethylphenyl)piperazin-1-yl]-2-{3-[4-hydroxy-4-(trifluoromethyl)piperidine-1-carbonyl]-5,6-dihydrocyclopenta[c]pyrazol-1(4H)-yl}ethan-1-one] are within 1.5-fold of each other in IC50: 6.25 nM for the first, 4.53 nM for the second.

Going from `Cc1cccc(N2CCN(C(=O)Cn3nc(C(=O)N4CCC5(CCCC(=O)N5)CC4)c4c3CCC4)CC2)c1C` [Example 183, 9-(1-{2-[4-(2,3-dimethylphenyl)piperazin-1-yl]-2-oxoethyl}-1,4,5,6-tetrahydrocyclopenta[c]pyrazole-3-carbonyl)-1,9-diazaspiro[5.5]undecan-2-one] to `Cc1cccc(N2CCN(C(=O)Cn3nc(C(=O)N4CCC5(CC4)CNC(=O)N5)c4c3CCC4)CC2)c1C` [Example 184, 8-(1-{2-[4-(2,3-dimethylphenyl)piperazin-1-yl]-2-oxoethyl}-1,4,5,6-tetrahydrocyclopenta[c]pyrazole-3-carbonyl)-1,3,8-triazaspiro[4.5]decan-2-one], the IC50 rises from 3.22 nM to 80.2 nM (25-fold).

Compared with `CC(=O)NC1CCCN(C(=O)c2nn(CC(=O)N3CCN(c4cccc(C)c4C)CC3)c3c2CCC3)C1` (centres unmarked) [Example 185, N-[1-(1-{2-[4-(2,3-dimethylphenyl)piperazin-1-yl]-2-oxoethyl}-1,4,5,6-tetrahydrocyclopenta[c]pyrazole-3-carbonyl)piperidin-3-yl]acetamide], `CC(=O)NC1CCN(C(=O)c2nn(CC(=O)N3CCN(c4cccc(C)c4C)CC3)c3c2CCC3)C1` (centres unmarked) [Example 194, N-[1-(1-{2-[4-(2,3-dimethylphenyl)piperazin-1-yl]-2-oxoethyl}-1,4,5,6-tetrahydrocyclopenta[c]pyrazole-3-carbonyl)pyrrolidin-3-yl]acetamide] is 3-fold lower in IC50: 120 nM for the first, 40 nM for the second.

Going from `Cc1cccc(N2CCN(C(=O)Cn3nc(C(=O)N4CCCC(N(C)C)C4)c4c3CCC4)CC2)c1C` (centres unmarked) [Example 186, 2-{3-[3-(dimethylamino)piperidine-1-carbonyl]-5,6-dihydrocyclopenta[c]pyrazol-1(4H)-yl}-1-[4-(2,3-dimethylphenyl)piperazin-1-yl]ethan-1-one] to `Cc1cccc(N2CCN(C(=O)Cn3nc(C(=O)N4CC[C@@H](N)[C@@H](C)C4)c4c3CCC4)CC2)c1C` [Example 198, 2-{3-[(3S,4R)-4-amino-3-methylpiperidine-1-carbonyl]-5,6-dihydrocyclopenta[c]pyrazol-1(4H)-yl}-1-[4-(2,3-dimethylphenyl)piperazin-1-yl]ethan-1-one], the IC50 rises from 37.9 nM to 89.6 nM (2.4-fold).

Going from `Cc1cccc(N2CCN(C(=O)Cn3nc(C(=O)N4CCCC(N5CCCC5)C4)c4c3CCC4)CC2)c1C` (centres unmarked) [Example 187, 1-[4-(2,3-dimethylphenyl)piperazin-1-yl]-2-{3-[3-(pyrrolidin-1-yl)piperidine-1-carbonyl]-5,6-dihydrocyclopenta[c]pyrazol-1(4H)-yl}ethan-1-one] to `Cc1cccc(N2CCN(C(=O)Cn3nc(C(=O)N4CCN5CCCC[C@H]5C4)c4c3CCC4)CC2)c1C` [Example 191, 1-[4-(2,3-dimethylphenyl)piperazin-1-yl]-2-{3-[(9aS)-octahydro-2H-pyrido[1,2-a]pyrazine-2-carbonyl]-5,6-dihydrocyclopenta[c]pyrazol-1(4H)-yl}ethan-1-one], the IC50 falls from 76.1 nM to 2.92 nM (26-fold).

First: Cc1cccc(N2CCN(C(=O)Cn3nc(C(=O)N4CCC(NC(N)=O)CC4)c4c3CCC4)CC2)c1C [Example 188, N-[1-(1-{2-[4-(2,3-dimethylphenyl)piperazin-1-yl]-2-oxoethyl}-1,4,5,6-tetrahydrocyclopenta[c]pyrazole-3-carbonyl)piperidin-4-yl]urea]
Second: Cc1cccc(N2CCN(C(=O)Cn3nc(C(=O)N4CCNCC4)c4c3CCC4)CC2)c1C [Example 195, 1-[4-(2,3-dimethylphenyl)piperazin-1-yl]-2-[3-(piperazin-1-carbonyl)-5,6-dihydrocyclopenta[c]pyrazol-1(4H)-yl]ethan-1-one]
The IC50 of the first is 19-fold lower: 9.76 nM for the first, 189 nM for the second. The first is the more potent here.

First: Cc1cccc(N2CCN(C(=O)Cn3nc(C(=O)N4CCC5(CC4)CNC(=O)CO5)c4c3CCC4)CC2)c1C [Example 190, 9-(1-{2-[4-(2,3-dimethylphenyl)piperazin-1-yl]-2-oxoethyl}-1,4,5,6-tetrahydrocyclopenta[c]pyrazole-3-carbonyll)-1-oxa-4,9-diazaspiro[5.5]undecan-3-one]
Second: Cc1cccc(N2CCN(C(=O)Cn3nc(C(=O)N4CCCC5(CCNC5=O)C4)c4c3CCC4)CC2)c1C (centres unmarked) [Example 193, 7-(1-{2-[4-(2,3-dimethylphenyl)piperazin-1-yl]-2-oxoethyl}-1,4,5,6-tetrahydrocyclopenta[c]pyrazole-3-carbonyl)-2,7-diazaspiro[4.5]decan-1-one]
The IC50 of the first is 46-fold lower: 1.62 nM for the first, 75 nM for the second. The first is the more potent here.

Compared with `Cc1cccc(N2CCN(C(=O)Cn3nc(C(=O)N4CC5C(N)C5C4)c4c3CCC4)CC2)c1C` (centres unmarked) [Example 196, 2-[3-(6-amino-3-azabicyclo[3.1.0]hexane-3-carbonyl)-5,6-dihydrocyclopenta[c]pyrazol-1(4H)-yl]-1-[4-(2,3-dimethylphenyl)piperazin-1-yl]ethan-1-one], `Cc1cccc(N2CCN(C(=O)Cn3nc(C(=O)N4CC5CNC5C4)c4c3CCC4)CC2)c1C` (centres unmarked) [Example 199, 2-[3-(3,6-diazaspiro[3.2.0]heptane-3-carbonyl)-5,6-dihydrocyclopenta[c]pyrazol-1(4H)-yl]-1-[4-(2,3-dimethylphenyl)piperazin-1-yl]ethan-1-one] is 5.4-fold lower in IC50: 103 nM for the first, 19 nM for the second.

`Cc1cccc(N2CCN(C(=O)Cn3nc(C(=O)N4C[C@@H](C)N[C@@H](C)C4)c4c3CCC4)CC2)c1C` [Example 197, 1-[4-(2,3-dimethylphenyl)piperazin-1-yl]-2-{3-[(3R,5S)-3,5-dimethylpiperazine-1-carbonyl]-5,6-dihydrocyclopenta[c]pyrazol-1(4H)-yl}ethan-1-one] and `Cc1cccc(N2CCN(C(=O)Cn3nc(C(=O)N4CC[C@@H](F)[C@@H](O)C4)c4c3CCC4)CC2)c1C` [Example 204, 1-[4-(2,3-dimethylphenyl)piperazin-1-yl]-2-[3-[(3S,4R)-4-fluoro-3-hydroxy-piperidine-1-carbonyl]-5,6-dihydro-4H-cyclopenta[c]pyrazol-1-yl]ethanone] are within 1.5-fold of each other in IC50: 11.4 nM for the first, 13.1 nM for the second.
